Assay results taken from patent US20130331412A9, “Pharmaceutical Compositions and Administrations Thereof” (VERTEX PHARMACEUTICALS INCORPORATED, priority 2010, published 2013).

How the values were obtained:
Type in all cases: cell-based
[1] = biological target: T1, ΔF508-CFTR (Homo sapiens, UniProt P13569, DEL508-508); assay: Membrane potential optical assay for ΔF508-CFTR potentiation (FLIPR III); details: relative efficacy; ΔF508-CFTR NIH 3T3 cells
T1 construct: expressed in transfected cells; host or cells: NIH3T3 mouse fibroblasts
Source text: The assay utilizes fluorescent voltage sensing dyes to measure changes in membrane potential using a fluorescent plate reader (e.g., FLIPR III, Molecular Devices, Inc.) as a readout for increase in functional ΔF508-CFTR in NIH 3T3 cells. The driving force for the response is the creation of a chloride ion gradient in conjunction with channel activation by a single liquid addition step after the cells have previously been treated with compounds and subsequently loaded with a voltage sensing dye. To identify potentiators of ΔF508-CFTR, a double-addition HTS assay format was developed. This HTS assay utilizes fluorescent voltage sensing dyes to measure changes in membrane potential on the FLIPR III as a measurement for increase in gating (conductance) of ΔF508 CFTR in temperature-corrected ΔF508 CFTR NIH 3T3 cells. The driving force for the response is a Cl^− ion gradient in conjunction with channel activation with forskolin in a single liquid addition step using a fluorescent plate reader such as FLIPR III after the cells have previously been treated with potentiator compounds (or DMSO vehicle control) and subsequently loaded with a redistribution dye. Bath Solution #1: (in mM) NaCl 160, KCl 4.5, CaCl2 2, MgCl2 1, HEPES10, pH 7.4 with NaOH. Chloride-free bath solution: Chloride salts in Bath Solution #1 (above) are substituted with gluconate salts. […]

[2] = biological target: T2, human CFTR mutant D579G (Homo sapiens, UniProt P13569, D579G); assay: FRT cell Ussing chamber chloride transport assay; details: FRT cells expressing D579G CFTR
T2 construct: expressed in transfected cells; host or cells: Fisher rat thyroid (FRT) FlpIn cells, pcDNA5/FRT
Source text: (§1) DNA cloning: Wild-type CFTR coding region was inserted into pcDNA5/FRT (Invitrogen, San Diego, Calif.) between EcoRV and ApaI.
(§2) Single CFTR gene mutations were introduced into the wild-type CFTR coding sequence by using QuickChange XL site-directed mutagenesis kit (Stratagene, Cambridge, UK). The CFTR coding region as well as its promoter sequence and 3′ untranslated sequence was fully sequenced to confirm the mutagenesis reaction.
(§3) The CFTR gene was stably expressed in Fisher rat thyroid (FRT) cells through FlpIn system. The FRT-FlpIn host cell line was generated by stably transfecting FRT cells with pFRT/lacZeo. The single integration of a FRT site was confirmed by Southern blot. After the mutant CFTR DNA was transfected into the FRT-FlpIn host cell line, the cells were incubate at 37° C. in Coon's modified Ham's F12 containing 10% FBS, 1% Pen/Strep, and 36 ml of Na− Bicarbonate for up to 8 passages under hygromycin selection (200 ug/ml).
(§4) All cells were grown on Costar® Snapwell™ cell culture inserts at maintained at 37° C. prior to recording. The cell culture inserts were mounted into an Ussing chamber (VCC MC8; Physiologic Instruments, Inc., San Diego, Calif.) to record ISC in the voltage-clamp mode (Vhold=0 mV). For FRT cells, the basolateral membrane was permeabilized with 360 μg/ml Nystatin and a basolateral to apical Cl− gradient was established. The basolateral bath solution contained (in mM); 135 NaCl, 1.2 CaCl2, 1.2 MgCl2, 2.4 K2HPO4, 0.6 KHPO4, 10 N-2-hydroxyethylpiperazine-N′-2-ethanesulfonic acid (HEPES), and 10 dextrose (titrated to pH 7.4 with NaOH). The apical NaCl was replaced by equimolar Na+ gluconate (titrated to pH 7.4 with NaOH). For HBE cells, the ISC was measured in the presence of a basolateral to apical Cl− gradient. The normal Cl− solution contained (in mM) 145 NaCl, 3.3 K2HPO4, 1.2 MgCl2, 1.2 CaCl2, 10 Glucose, 10 HEPES (pH adjusted to 7.35 with NaOH) and the low Cl− solution contained (in mM) 145 NaGluconate, 1.2 MgCl2, 1.2 CaCl2, 10 glucose, 10 HEPES (pH adjusted to 7.35 with NaOH). All recordings were digitally acquired using a Acquire and Analyze software (version 2; Physiologic Instruments, Inc. San Diego, Calif.).
(§5) The 10 μM forskolin stimulated response in FRT cell expressing different mutant CFTR forms or in HBE cells isolated from CF patients was normalized to the 10 μM forskolin-stimulated response in FRT cells expressing wild-type CFTR or in HBE isolated from non-CF individuals and expressed as % wild-type CFTR. In HBE, amiloride was added prior to forskolin application to block the epithelial Na+ channel.

[3] = biological target: T3, human CFTR mutant D1270N (Homo sapiens, UniProt P13569, D1270N); assay: FRT cell Ussing chamber chloride transport assay; details: FRT cells expressing D1270N CFTR
T3 construct: expressed in transfected cells; host or cells: Fisher rat thyroid (FRT) FlpIn cells, pcDNA5/FRT
Source text: as §1, §2, §3, §4, §5

[4] = biological target: T4, human CFTR mutant D1152H (Homo sapiens, UniProt P13569, D1152H); assay: FRT cell Ussing chamber chloride transport assay; details: FRT cells expressing D1152H CFTR
T4 construct: expressed in transfected cells
Source text: as §1, §2, §3, §4, §5

[5] = biological target: T5, human CFTR mutant S549R (Homo sapiens, UniProt P13569, S549R); assay: FRT cell Ussing chamber chloride transport assay; details: FRT cells expressing S549R CFTR
T5 construct: expressed in transfected cells; host or cells: Fisher rat thyroid (FRT) FlpIn cells, pcDNA5/FRT
Source text: as §1, §2, §3, §4, §5

[6] = biological target: T6, human CFTR mutant A455E (Homo sapiens, UniProt P13569, A455E); assay: FRT cell Ussing chamber chloride transport assay; details: FRT cells expressing A455E CFTR
T6 construct: expressed in transfected cells; host or cells: Fisher rat thyroid (FRT) FlpIn cells, pcDNA5/FRT
Source text: as §1, §2, §3, §4, §5

[7] = biological target: T7, human CFTR mutant F1074L (Homo sapiens, UniProt P13569, F1074L); assay: FRT cell Ussing chamber chloride transport assay; details: FRT cells expressing F1074L CFTR
T7 construct: expressed in transfected cells; host or cells: Fisher rat thyroid (FRT) FlpIn cells, pcDNA5/FRT
Source text: as §1, §2, §3, §4, §5

[8] = biological target: T8, human CFTR mutant D110H (Homo sapiens, UniProt P13569, D110H); assay: FRT cell Ussing chamber chloride transport assay; details: FRT cells expressing D110H CFTR
T8 construct: expressed in transfected cells; host or cells: Fisher rat thyroid (FRT) FlpIn cells, pcDNA5/FRT
Source text: as §1, §2, §3, §4, §5

[9] = biological target: T9, human CFTR mutant R117C (Homo sapiens, UniProt P13569, R117C); assay: FRT cell Ussing chamber chloride transport assay; details: FRT cells expressing R117C CFTR
T9 construct: expressed in transfected cells; host or cells: Fisher rat thyroid (FRT) FlpIn cells, pcDNA5/FRT
Source text: as §1, §2, §3, §4, §5

[10] = biological target: T10, human CFTR mutant S1255P (Homo sapiens, UniProt P13569, S1255P); assay: FRT cell Ussing chamber chloride transport assay; details: FRT cells expressing S1255P CFTR
T10 construct: expressed in transfected cells; host or cells: Fisher rat thyroid (FRT) FlpIn cells, pcDNA5/FRT
Source text: as §1, §2, §3, §4, §5

[11] = biological target: T11, human CFTR mutant E56K (Homo sapiens, UniProt P13569, E56K); assay: FRT cell Ussing chamber chloride transport assay; details: FRT cells expressing E56K CFTR
T11 construct: expressed in transfected cells; host or cells: Fisher rat thyroid (FRT) FlpIn cells, pcDNA5/FRT
Source text: as §1, §2, §3, §4, §5

[12] = biological target: T12, human CFTR mutant G1244E (Homo sapiens, UniProt P13569, G1244E); assay: FRT cell Ussing chamber chloride transport assay; details: FRT cells expressing G1244E CFTR
T12 construct: expressed in transfected cells; host or cells: Fisher rat thyroid (FRT) FlpIn cells, pcDNA5/FRT
Source text: as §1, §2, §3, §4, §5

[13] = biological target: T13, human CFTR mutant R1070W (Homo sapiens, UniProt P13569, R1070W); assay: FRT cell Ussing chamber chloride transport assay; details: FRT cells expressing R1070W CFTR
T13 construct: expressed in transfected cells; host or cells: Fisher rat thyroid (FRT) FlpIn cells, pcDNA5/FRT
Source text: as §1, §2, §3, §4, §5

T6 sequence (P13569 whole entry A455E): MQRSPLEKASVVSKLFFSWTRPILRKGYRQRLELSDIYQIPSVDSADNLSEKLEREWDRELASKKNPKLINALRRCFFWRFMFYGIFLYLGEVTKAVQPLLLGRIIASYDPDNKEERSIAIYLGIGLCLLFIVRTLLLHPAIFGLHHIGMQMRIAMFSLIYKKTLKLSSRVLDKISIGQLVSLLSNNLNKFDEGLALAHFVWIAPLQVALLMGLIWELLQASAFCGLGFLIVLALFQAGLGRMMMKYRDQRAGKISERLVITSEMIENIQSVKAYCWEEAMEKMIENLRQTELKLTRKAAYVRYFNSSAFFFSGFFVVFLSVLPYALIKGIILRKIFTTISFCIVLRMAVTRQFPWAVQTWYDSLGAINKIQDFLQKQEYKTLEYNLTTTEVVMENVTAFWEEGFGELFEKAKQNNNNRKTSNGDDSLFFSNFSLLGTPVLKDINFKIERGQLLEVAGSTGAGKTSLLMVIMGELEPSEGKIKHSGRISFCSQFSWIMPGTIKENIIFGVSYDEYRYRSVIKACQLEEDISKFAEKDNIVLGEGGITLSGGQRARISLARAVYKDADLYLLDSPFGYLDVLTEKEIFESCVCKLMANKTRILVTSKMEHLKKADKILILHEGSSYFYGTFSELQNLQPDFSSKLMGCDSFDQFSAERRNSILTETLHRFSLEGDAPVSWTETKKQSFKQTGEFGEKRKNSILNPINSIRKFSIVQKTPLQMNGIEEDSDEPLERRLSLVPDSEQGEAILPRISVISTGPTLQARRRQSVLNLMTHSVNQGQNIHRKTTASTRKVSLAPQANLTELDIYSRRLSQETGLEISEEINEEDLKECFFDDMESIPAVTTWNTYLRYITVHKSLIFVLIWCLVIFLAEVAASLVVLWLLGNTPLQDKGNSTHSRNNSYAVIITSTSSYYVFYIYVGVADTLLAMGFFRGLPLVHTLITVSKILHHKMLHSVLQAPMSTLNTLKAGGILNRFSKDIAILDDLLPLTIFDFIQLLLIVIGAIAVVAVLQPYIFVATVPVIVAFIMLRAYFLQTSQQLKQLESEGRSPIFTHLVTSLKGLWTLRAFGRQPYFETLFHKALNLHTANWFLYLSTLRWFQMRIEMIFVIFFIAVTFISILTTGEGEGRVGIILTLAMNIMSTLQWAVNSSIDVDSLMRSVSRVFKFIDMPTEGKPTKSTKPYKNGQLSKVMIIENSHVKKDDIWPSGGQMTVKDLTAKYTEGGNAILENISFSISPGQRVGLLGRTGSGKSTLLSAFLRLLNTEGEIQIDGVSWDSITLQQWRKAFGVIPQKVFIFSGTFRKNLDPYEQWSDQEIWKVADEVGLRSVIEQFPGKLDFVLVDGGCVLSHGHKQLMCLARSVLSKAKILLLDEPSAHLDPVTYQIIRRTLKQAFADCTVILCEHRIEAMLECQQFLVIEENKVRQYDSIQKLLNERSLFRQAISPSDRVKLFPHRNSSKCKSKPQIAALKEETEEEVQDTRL
T4 sequence (P13569 whole entry D1152H): as the sequence (P13569 whole entry A455E) above, with E455A, D1152H counted along it
T12 sequence (P13569 whole entry G1244E): as the sequence (P13569 whole entry A455E) above, with E455A, G1244E counted along it
T2 sequence (P13569 whole entry D579G): as the sequence (P13569 whole entry A455E) above, with E455A, D579G counted along it
T7 sequence (P13569 whole entry F1074L): as the sequence (P13569 whole entry A455E) above, with E455A, F1074L counted along it
T9 sequence (P13569 whole entry R117C): as the sequence (P13569 whole entry A455E) above, with R117C, E455A counted along it
T8 sequence (P13569 whole entry D110H): as the sequence (P13569 whole entry A455E) above, with D110H, E455A counted along it
T1 sequence (P13569 with tags, fused parts or gaps DEL508-508): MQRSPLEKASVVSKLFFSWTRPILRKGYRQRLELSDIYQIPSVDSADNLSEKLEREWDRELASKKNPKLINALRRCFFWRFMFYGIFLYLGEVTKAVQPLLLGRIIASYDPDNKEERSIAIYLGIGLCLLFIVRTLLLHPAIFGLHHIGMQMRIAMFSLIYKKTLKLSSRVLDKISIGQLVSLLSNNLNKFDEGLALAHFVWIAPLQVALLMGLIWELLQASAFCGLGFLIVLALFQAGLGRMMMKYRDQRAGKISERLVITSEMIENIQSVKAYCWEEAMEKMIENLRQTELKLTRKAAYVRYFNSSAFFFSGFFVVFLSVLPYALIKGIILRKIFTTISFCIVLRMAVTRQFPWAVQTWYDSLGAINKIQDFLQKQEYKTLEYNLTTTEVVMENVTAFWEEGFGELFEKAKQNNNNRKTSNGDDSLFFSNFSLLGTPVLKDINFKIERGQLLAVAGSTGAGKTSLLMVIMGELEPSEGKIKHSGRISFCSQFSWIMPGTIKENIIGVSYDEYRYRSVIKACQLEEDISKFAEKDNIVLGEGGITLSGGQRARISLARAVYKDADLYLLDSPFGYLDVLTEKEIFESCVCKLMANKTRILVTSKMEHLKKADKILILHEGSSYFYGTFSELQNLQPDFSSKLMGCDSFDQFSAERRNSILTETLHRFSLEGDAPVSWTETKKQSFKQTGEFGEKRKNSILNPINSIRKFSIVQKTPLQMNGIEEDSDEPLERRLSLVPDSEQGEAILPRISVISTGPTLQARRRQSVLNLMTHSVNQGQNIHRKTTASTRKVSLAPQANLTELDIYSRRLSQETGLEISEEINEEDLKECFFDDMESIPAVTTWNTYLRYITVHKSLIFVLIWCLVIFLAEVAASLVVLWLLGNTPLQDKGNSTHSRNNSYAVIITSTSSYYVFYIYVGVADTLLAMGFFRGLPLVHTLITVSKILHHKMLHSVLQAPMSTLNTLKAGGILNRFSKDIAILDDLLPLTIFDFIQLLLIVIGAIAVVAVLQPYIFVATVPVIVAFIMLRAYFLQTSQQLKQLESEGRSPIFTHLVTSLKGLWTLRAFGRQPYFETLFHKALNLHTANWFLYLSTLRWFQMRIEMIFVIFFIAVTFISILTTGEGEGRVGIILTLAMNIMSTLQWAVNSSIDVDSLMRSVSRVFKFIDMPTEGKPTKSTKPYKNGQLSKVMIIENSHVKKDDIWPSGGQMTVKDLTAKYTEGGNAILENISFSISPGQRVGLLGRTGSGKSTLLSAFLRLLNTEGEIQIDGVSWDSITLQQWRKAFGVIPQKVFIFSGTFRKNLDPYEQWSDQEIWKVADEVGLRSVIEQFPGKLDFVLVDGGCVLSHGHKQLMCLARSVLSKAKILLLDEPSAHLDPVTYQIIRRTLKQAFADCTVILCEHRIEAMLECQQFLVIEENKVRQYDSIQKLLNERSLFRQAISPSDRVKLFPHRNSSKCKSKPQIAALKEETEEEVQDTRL
T10 sequence (P13569 whole entry S1255P): as the sequence (P13569 whole entry A455E) above, with E455A, S1255P counted along it
T11 sequence (P13569 whole entry E56K): as the sequence (P13569 whole entry A455E) above, with E56K, E455A counted along it
T5 sequence (P13569 whole entry S549R): as the sequence (P13569 whole entry A455E) above, with E455A, S549R counted along it
T3 sequence (P13569 whole entry D1270N): as the sequence (P13569 whole entry A455E) above, with E455A, D1270N counted along it
T13 sequence (P13569 whole entry R1070W): as the sequence (P13569 whole entry A455E) above, with E455A, R1070W counted along it

SMILES: CC(C)(C)c1cc(C(C)(C)C)c(NC(=O)c2c[nH]c3ccccc3c2=O)cc1O [Compound 1, N-[2,4-bis(1,1-dimethylethyl)-5-hydroxyphenyl]-1,4-dihydro-4-oxoquinoline-3-carboxamide]
- % Activity [1]: ++ (“++” means between 25% to 100%)
- increase in chloride transport, relative to baseline chloride transport [2]: greater than or equal to 10%
- increase in chloride transport, relative to baseline chloride transport [3]: greater than or equal to 10%
- increase in chloride transport, relative to baseline chloride transport [4]: greater than or equal to 10%
- increase in chloride transport, relative to baseline chloride transport [5]: greater than 10 fold
- increase in chloride transport, relative to baseline chloride transport [6]: greater than or equal to 10%
- increase in chloride transport, relative to baseline chloride transport [7]: greater than or equal to 10%
- increase in chloride transport, relative to baseline chloride transport [8]: greater than or equal to 10%
- increase in chloride transport, relative to baseline chloride transport [9]: greater than or equal to 10%
- increase in chloride transport, relative to baseline chloride transport [10]: greater than 10 fold
- increase in chloride transport, relative to baseline chloride transport [11]: greater than or equal to 10%
- increase in chloride transport, relative to baseline chloride transport [12]: greater than 10 fold
- increase in chloride transport, relative to baseline chloride transport [13]: greater than or equal to 10%
